{"source": "patent US20210106703A1", "about": "“RADIOIMMUNOCONJUGATES IN COMBINATION WITH OTHER DRUGS AS TREATMENT AGAINST NHL” (Nordic Nanovector ASA, priority 2017, published 2021)", "key": {"[1]": {"test_system": "U-2932 cells", "test": "Real Time Glo viability screen and validation, Betalutin with PARP or cell cycle kinase inhibitors (Examples 4, 7)", "format": "cell-based, human", "details": "U-2932, validation screen, 0-1280 nM"}, "[2]": {"test_system": "DOHH2 cells", "test": "Alamar Blue cytotoxicity study", "format": "cell-based, human", "details": "Homo sapiens, DOHH-2; DOHH2, 72 h incubation after seeding; read-out: IC50", "method": "(§1) Cells were treated with either Humalutin, olaparib or a combination of both and seeded into 96 well-plates. At each time point after treatment, cells were incubated with Alamar Blue (Thermo Fisher, DALL1100) for 4 hours and fluorescence measurements were performed using a multiplate reader Fluoroskan ascent FL to assess cell proliferation and viability. All experiments were done in duplicates using 2 samples in each experiment. Data were normalized to the untreated controls.\n(§2) Cells were incubated with 0.25, 0.5, 1, 2.5 or 5 μg/ml of Humalutin in cell culture flasks and incubated at 37° C./5% CO2. After 18-20 hours cells were washed and resuspended in fresh medium. Cell bound activity after washing was measured using a calibrated gamma detector (Cobra II auto-gamma detector, Packard Instrument Company, Meriden, Conn., USA). Cell concentration and viability was also measured after washing using Guava ViaCount Cell Dispersal Reagent for Flow Cytometry (Merck GaA, Darmstadt, Germany) and measured in a Guava EasyCyte 12HT (Merck KGaA, Darmstadt, Germany) to determine how well the cells survived the incubation. Cells were seeded in 96 well plates.\n(§3) Cells were seeded in 96 well plates pre-coated with from 1 to 100 μM olaparib in 0.2 ml medium and incubated at 37° C./5% CO2 for 72 hours before the cytotoxic effect was measured using alamar blue cell viability assay.\n(§4) Cells were incubated with either 0, 0.5 μg/ml or 1 μg/ml Humalutin and the same procedure as described before for treatment with humalutin alone and olaparib alone was followed. Concentrations of olaparib used were between 1 and 100 μM.\n(§5) The Chou-Talalay model was used for synergy calculations using the Compusyn software. R (goodness of fit) was calculated for the individual treatments and should be over 0.90 in in vitro culture experiments in order to use the calculated combination index (CI). The CI is an indication of synergy: 0-0.9 is considered synergy. Synergysm grading was used as described in WO2006004917A2. […]\nas §2, with “viability were” for “viability was”, “plates. Alamar blue viability measurements were performed 120 h after seeding.” for “plates.”"}, "[3]": {"test_system": "Granta 519 cells", "test": "Alamar Blue cytotoxicity study", "format": "cell-based, human", "details": "Homo sapiens; Granta 519, 72 h incubation after seeding; read-out: IC50", "method": "as §1, §2, §3, §4, §5\nas §2, with “viability were” for “viability was”, “plates. Alamar blue viability measurements were performed 120 h after seeding.” for “plates.”"}, "[4]": {"test_system": "U2932 cells", "test": "Alamar Blue cytotoxicity study", "format": "cell-based, human", "details": "for IC50: Homo sapiens; for Combination Index (Chou-Talalay): 120 h", "method": "as §1, §2, §3, §4, §5\nas §2, with “viability were” for “viability was”, “plates. Alamar blue viability measurements were performed 120 h after seeding.” for “plates.”\nCells were incubated with either 0 (control), 0.5 μg/ml or 1 μg/ml Humalutin for 18 to 20 hours. Cells were then washed and resuspended in fresh medium."}, "[5]": {"test_system": "Ramos cells", "test": "Apoptosis induction (Annexin V/7-AAD, Muse flow cytometer)", "format": "cell-based, human", "details": "6 MBq/mL radiolabelled mAb for 18 h, peak time 72 h", "method": "(§6) Cells were harvested at 0, 2 h, 18 h, 1 d, 2 d, 3 d of RIT. At each time point, apoptosis was detected with […] from Merck Millipore (Annexin V Kit with 7-AAD) in the dark for 30 min at room temperature before analysis using Muse® flow cytometer"}, "[6]": {"test_system": "Rec-1 cells", "test": "Apoptosis induction (Annexin V/7-AAD, Muse flow cytometer)", "format": "cell-based, human", "details": "Rec-1, 6 MBq/mL radiolabelled mAb for 18 h, peak time 72 h", "method": "as §6"}, "[7]": {"test_system": "Ramos cells", "test": "Immunoreactive fraction, one point modified Lindmo method", "format": "binding, human", "details": "75 million Ramos cells/ml", "method": "The immunoreactivity of the radioimmunoconjugates was measured using Ramos cells and a one point modified Lindmo method. The cell concentration used was 75 million cells/ml. The immunoreactivity of the conjugates was higher than 70%.\nThe immunoreactivity of the radioimmunoconjugates was measured using Ramos cells and a one point modified Lindmo method (1, 2). The cell concentration used was 75 million cells/ml. The immunoreactivity of the conjugates was higher than 70%.\nThe immunoreactivity of the radioimmunoconjugates was measured using Ramos cells and a one point modified Lindmo method. The cell concentration used was 75 million cells/ml. The immunoreactivity of the conjugates was higher than 70%)."}}, "note": "Where two headings read alike, the source gives them in different places.", "data": [{"molecule": "Nc1nc(Nc2ccc(S(N)(=O)=O)cc2)nn1C(=O)c1c(F)cccc1F", "note": "[JNJ-7706621]", "values": [{"measurement": "Effect of monotreatment on proliferation", "setting": "[1]", "value": "not evident at concentrations below 160 nM"}]}, {"molecule": "CC1(C)CCC(CN2CCN(c3ccc(C(=O)NS(=O)(=O)c4ccc(NCC5CCOCC5)c([N+](=O)[O-])c4)c(Oc4cnc5[nH]ccc5c4)c3)CC2)=C(c2ccc(Cl)cc2)C1", "note": "[venetoclax]", "values": [{"measurement": "IC50", "setting": "[2]", "value": 2.98, "unit": "µM"}, {"measurement": "IC50", "setting": "[3]", "value": 0.331, "unit": "µM"}, {"measurement": "IC50", "setting": "[4]; read-out: IC50 at 120 h, U2932, 120 h incubation after seeding", "value": 1.14, "unit": "µM"}, {"measurement": "IC50", "setting": "[4]; U2932, 72 h incubation after seeding, read-out: IC50", "value": 4.15, "unit": "µM"}, {"measurement": "Combination Index (Chou-Talalay)", "setting": "[4]; U2932, drug 10 μM + Humalutin 0.5 μg/ml", "value": 0.50}, {"measurement": "Combination Index (Chou-Talalay)", "setting": "[4]; U2932, drug 10 μM + Humalutin 1 μg/ml", "value": 0.09}, {"measurement": "Combination Index (Chou-Talalay)", "setting": "[4]; U2932, drug 40 μM + Humalutin 0.5 μg/ml", "value": 0.91}, {"measurement": "Combination Index (Chou-Talalay)", "setting": "[4]; U2932, drug 40 μM + Humalutin 1 μg/ml", "value": 0.23}, {"measurement": "Combination Index (Chou-Talalay)", "setting": "[4]; U2932, drug 80 μM + Humalutin 0.5 μg/ml", "value": 0.54}, {"measurement": "Combination Index (Chou-Talalay)", "setting": "[4]; U2932, drug 80 μM + Humalutin 1 μg/ml", "value": 0.12}, {"measurement": "Combination Index (Chou-Talalay)", "setting": "[4]; U2932, drug 100 μM + Humalutin 0.5 μg/ml", "value": 0.49}, {"measurement": "Combination Index (Chou-Talalay)", "setting": "[4]; U2932, drug 100 μM + Humalutin 1 μg/ml", "value": 0.07}, {"measurement": "Combination Index (Chou-Talalay)", "setting": "[4]; U2932, venetoclax 0.25 + Humalutin 0.5 μg/ml", "value": 0.02}, {"measurement": "Combination Index (Chou-Talalay)", "setting": "[4]; U2932, venetoclax 0.25 + Humalutin 1 μg/ml", "value": 0.12}, {"measurement": "Combination Index (Chou-Talalay)", "setting": "[4]; U2932, venetoclax 0.5 + Humalutin 0.5 μg/ml", "value": 0.01}, {"measurement": "Combination Index (Chou-Talalay)", "setting": "[4]; U2932, venetoclax 0.5 + Humalutin 1 μg/ml", "value": 0.10}, {"measurement": "Combination Index (Chou-Talalay)", "setting": "[4]; U2932, venetoclax 1 + Humalutin 0.5 μg/ml", "value": 0.03}, {"measurement": "Combination Index (Chou-Talalay)", "setting": "[4]; U2932, venetoclax 1 + Humalutin 1 μg/ml", "value": 0.08}, {"measurement": "Combination Index (Chou-Talalay)", "setting": "[4]; U2932, venetoclax 2.5 + Humalutin 0.5 μg/ml", "value": 0.03}, {"measurement": "Combination Index (Chou-Talalay)", "setting": "[4]; U2932, venetoclax 2.5 + Humalutin 1 μg/ml", "value": 0.06}]}, {"molecule": "Lutetium-177 [^177Lu]-lilotomab satetraxetan (conjugate, chains of the INN, looked up, 177Lu satetraxetan chelator conjugate) VH: EIQLQQSGPELVKPGASVKVSCKASGYSFTDYNMYWVKQSHGKSLEWIGYIDPYNGDTTYNQKFKGKATLTVDKSSSTAFIHLNSLTSEDSAVYYCARSPYGHYAMDYWGQGTSVTVSS VL: DIVMTQSHKLLSTSVGDRVSITCKASQDVSTAVDWYQQKPGQSPKLLINWASTRHTGVPDRFTGSGSGTDYTLTISSMQAEDLALYYCRQHYSTPFTFGSGTKLEIK", "values": [{"measurement": "Apoptosis level", "setting": "[5]", "value": "33±8", "unit": "%"}, {"measurement": "Apoptosis level", "setting": "[6]", "value": "67±18", "unit": "%"}, {"measurement": "Immunoreactivity", "setting": "[7]", "value": "higher than 70%"}]}]}
